The results in this text go back to patent publication US9371365B2, “Modified compstatin with peptide backbone and C-terminal modifications” (The Trustees of the University of Pennsylvania, priority 2009, dated 2016).

A short description of series [1]: In vivo retention: plasma half-life in baboons by LC-MS/MS. Set-up: species or system baboon (P. Anubis). The following applies: P. Anubis, baboon (P. Anubis), in vivo, iv, 10 mg. The method, then:
A 96-well plate HLB Oasis 10 mg (Waters, Milford, Mass.) was employed for extraction. The SPE material was conditioned by addition of 500 μl of methanol followed by addition of 500 μL of milli-Q water. Sample was prepared by addition of the internal standard followed by 1:1 dilution with 4% H3PO4. After loading the sample, washing was carried out with 500 μL of 5% methanol in 0.1% formic acid. Sample was eluted with 150 μL of 65% methanol in 0.1% formic acid and collected in the collection plate. Solvent was evaporated to dryness in a speed-vac concentrator and reconstituted in 5% acetonitrile in 0.1% formic acid. Samples were kept at −20° C. until analysis.
Baboon plasma samples, 40 μL, were mixed with internal standard and dissolved 1:1 with 40 mM ammonium carbonate buffer. Rapigest detergent was added to a final concentration of 0.1%. Disulfide bridges were reduced in 5 mM DTT for 30 min at 60° C. Alkylation of cysteines was done by addition of iodoacetamide to a final concentration of 15 mM and incubation for 30 min in dark. The sample was enzymatically digested by addition of 16 μL of a 1 μG/μL trypsin solution and incubation overnight at 37° C. After that, the sample pH was lowered with 5% TFA to induce detergent degradation. To avoid nonspecific adsorption of very hydrophobic peptides, acetonitrile was added to 20%. The samples were centrifuged at 6° C. and 14000 rpm for 30 min and the supernatant was diluted with 0.1% formic acid to reduce acetonitrile concentration to 10% prior to filtration with a 10 kDa cut-off microcon centrifugal filter (Millipore, Billerica, Mass.). The filter was washed with 50 μL of 10% ACN in 0.1% formic acid and the collected sample was evaporated to dryness and reconstituted with 10% ACN in 0.1% formic acid.
LC-MS/MS analysis was performed on a SYNAPT HDMS (Waters, Milford, Mass.) controlled by MassLynx 4.1 software (Waters) and equipped with a nanoESI source. Each sample was injected in triplicate. A nanoACQUITY UPLC (Waters) system was used for peptide separation by reversed-phase liquid chromatography. After injection, analytes were trapped for 3 min with 3% mobile phase A (0.1% formic acid in water) at 5 μl/min on a 5 μm Symmetry C18 column (180 μm×20 mm, Waters) and further separated on a 1.7 μm BEH130 C18 column (75 μm×150 mm, Waters). The analytical column temperature was held at 35° C. Peptides were separated at flow rate 0.3 μl/min. The gradient was linear 3-40% B (0.1% formic acid in acetonitrile), either 50 min long, or 60 min for the digested samples. The capillary voltage was 3.2 kV, the cone voltage was 35 V and the source temperature was 100° C. [Glu1]-fibrinogen peptide was used for lock-mass correction with a sampling rate of 30 s. Mass spectra were acquired in positive mode over an m/z range 400-2000 Da at scan rate 0.6 s. The time window used for the MS/MS function was ±3 min of the retention time of the selected peptide. The presence of the analyte was confirmed by MS/MS. Selectivity was studied by analysis of blank samples to determine the presence of any interference coeluting with the analyte.
Juvenile baboons (P. Anubis, Baboon Research Resources, University of Oklahoma) weighing 5-8 kg were used. Three baboons were used for the study; one for each compound. All animals received a bolus dose of peptides (10 mg) by injection through the peripheral vein. […]

Series [2] deals with classical pathway of complement. The experiment in a line: Inhibition of classical pathway complement activation, ELISA in human serum. The format is biochemical. As for the experimental part: The ability of the compstatin analogs to inhibit the activation of the classical pathway of complement was assessed by ELISA (Mallik et al., 2005, J Med Chem 48:274-86). In brief, complement was activated in human serum using an antigen-antibody complex in the presence or absence of compstatin analogs, and the deposition of C3 fragments on the plate surface was detected using an HRP-conjugated polyclonal anti-C3 antibody. […] The percent inhibition was plotted against the peptide concentration, and the resulting data set was fitted to the logistic dose-response function using Origin 7.0 software. IC50 values were obtained from the fitted parameters that produced the lowest χ^2 value. Each analog was assayed at least three to seven times.
The ability of the compstatin analogs to inhibit the activation of the classical pathway of complement was assessed by ELISA as described in Example 1. Each conjugate was assayed at least three times.
For orientation: An ELISA detects its analyte on a solid surface through an enzyme-linked reagent.

A further series addresses T1, C3 (Homo sapiens, UniProt P01024).
T1 construct: C3 was purified from fresh human plasma; from tissue; host or cells: fresh human plasma (blood bank of the Hospital of the University of Pennsylvania)
As to the kind of experiment: ITC analysis of binding to C3. As for the experimental part:
C3 was purified from fresh human plasma obtained from the blood bank of the Hospital of the University of Pennsylvania. In brief, the plasma was fractionated with 15% (w/v) PEG 3350, and the pellet was resuspended in 20 mM phosphate buffer, pH 7.8, and then subjected to anion-exchange chromatography on a DEAE-HR 40 column (50×5 cm; Millipore Inc., Billerica, Mass.) with the same buffer. Proteins were eluted with 6 L of a linear gradient (15-70%) of 20 mM phosphate buffer, pH 7.8, containing 500 mM NaCl. C3 was further purified on a size-exclusion Superdex 200 26/60 column (Amersham Biosciences) and a Mono S column (Amersham Biosciences) to separate C3 from C3(H2O).
All titrations were performed in PBS (10 mM phosphate buffer with 150 mM NaCl, pH 7.4) at 25° C. using multiple peptide injections of 2-7 μL each. The raw isotherms were corrected for the heats of dilution by subtracting the isotherms representing peptide injections into the buffer. The resulting isotherms were fitted to a single site of sites models using Origin 7.0 software, and the model that produced the lowest χ^2 value was deemed to be appropriate for the respective data set. The Gibbs free energy was calculated as ΔG=ΔH−TΔS. Each experiment was repeated at least twice.
On the technique in general: Isothermal titration calorimetry measures the heat released or taken up as one component is titrated into another.

Where two headings read alike, the source gives them in different places.

T1 sequence (P01024 23-667 limits assumed): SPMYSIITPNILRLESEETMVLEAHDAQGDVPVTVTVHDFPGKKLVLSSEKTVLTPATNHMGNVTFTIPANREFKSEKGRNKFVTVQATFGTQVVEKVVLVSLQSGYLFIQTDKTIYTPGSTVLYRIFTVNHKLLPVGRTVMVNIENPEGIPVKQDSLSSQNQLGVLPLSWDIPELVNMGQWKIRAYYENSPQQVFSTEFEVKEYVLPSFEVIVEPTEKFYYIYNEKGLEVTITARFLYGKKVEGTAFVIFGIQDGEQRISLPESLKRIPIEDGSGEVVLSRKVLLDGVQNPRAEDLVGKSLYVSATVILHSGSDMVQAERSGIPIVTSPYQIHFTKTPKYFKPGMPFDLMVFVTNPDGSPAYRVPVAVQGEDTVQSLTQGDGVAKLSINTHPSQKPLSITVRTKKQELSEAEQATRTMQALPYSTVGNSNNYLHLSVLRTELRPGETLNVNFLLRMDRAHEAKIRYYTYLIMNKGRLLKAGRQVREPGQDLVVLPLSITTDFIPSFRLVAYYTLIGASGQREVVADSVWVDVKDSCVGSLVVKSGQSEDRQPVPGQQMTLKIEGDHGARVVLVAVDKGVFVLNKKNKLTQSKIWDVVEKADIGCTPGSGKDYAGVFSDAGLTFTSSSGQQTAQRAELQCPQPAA
T1 sequence (P01024 672-1663 limits assumed): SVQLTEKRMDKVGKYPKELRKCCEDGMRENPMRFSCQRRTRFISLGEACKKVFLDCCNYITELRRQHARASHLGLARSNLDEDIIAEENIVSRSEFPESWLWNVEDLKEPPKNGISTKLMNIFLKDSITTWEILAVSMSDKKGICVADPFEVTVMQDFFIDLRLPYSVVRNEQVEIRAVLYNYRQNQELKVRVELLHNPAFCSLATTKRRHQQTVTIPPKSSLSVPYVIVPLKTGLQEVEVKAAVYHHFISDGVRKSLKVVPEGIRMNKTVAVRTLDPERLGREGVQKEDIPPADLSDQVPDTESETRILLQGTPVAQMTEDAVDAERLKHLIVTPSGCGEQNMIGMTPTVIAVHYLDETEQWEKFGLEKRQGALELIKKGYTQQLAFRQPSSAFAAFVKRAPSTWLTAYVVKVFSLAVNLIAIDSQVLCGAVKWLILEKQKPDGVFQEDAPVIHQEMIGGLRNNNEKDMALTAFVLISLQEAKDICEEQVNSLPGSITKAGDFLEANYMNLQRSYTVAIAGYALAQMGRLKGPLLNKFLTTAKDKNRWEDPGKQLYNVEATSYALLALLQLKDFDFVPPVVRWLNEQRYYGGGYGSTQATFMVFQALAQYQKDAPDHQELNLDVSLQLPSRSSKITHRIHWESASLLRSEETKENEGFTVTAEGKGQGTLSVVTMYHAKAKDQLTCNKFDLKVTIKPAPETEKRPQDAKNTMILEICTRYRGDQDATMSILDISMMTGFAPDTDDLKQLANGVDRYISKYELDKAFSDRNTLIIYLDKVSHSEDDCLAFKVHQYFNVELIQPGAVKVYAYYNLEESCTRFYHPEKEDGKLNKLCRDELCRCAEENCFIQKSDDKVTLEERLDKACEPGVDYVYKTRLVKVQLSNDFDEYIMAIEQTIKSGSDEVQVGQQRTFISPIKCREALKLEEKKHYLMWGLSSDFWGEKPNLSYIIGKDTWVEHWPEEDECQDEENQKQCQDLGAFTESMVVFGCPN

The compound `CC[C@H](C)[C@H](NC(=O)[C@@H]1CSSC[C@H](NC(=O)[C@@H](NC(C)=O)[C@@H](C)CC)C(=O)N[C@@H](C(C)C)C(=O)N[C@@H](Cc2cn(C)c3ccccc23)C(=O)N[C@@H](CCC(N)=O)C(=O)N[C@@H](CC(=O)O)C(=O)N[C@@H](Cc2c[nH]c3ccccc23)C(=O)N(C)CC(=O)N[C@@H](C)C(=O)N[C@@H](Cc2c[nH]cn2)C(=O)N[C@@H](CCCNC(=N)N)C(=O)N1)C(N)=O` [Peptide 17, Ac−Ic[CV(^1−MeW)QDW(^N−MeG)AHRC]I-NH2] had a half-life in series [1] of about 1 h. For the same compound, the IC50 in series [2] (Table 1-2, read-out: IC50) was 92 nM. In addition, in series [2] (classical pathway, human serum, Table 2-1, read-out: IC50 (nM, CP)), the IC50 is 92 nM. The IC50 in series [2] (exemplary analogs table, read-out: IC50) stood at 92 nM. In addition, in series [2] (relative potency compared to peptide 14), the rP is on record as 2.2. For the same compound, the “IC50 (fold change)” value in series [2] (relative to peptide 17) came out at 1. For the same compound, at C3 (ITC), the ΔH was -14.1 kcal/mol, the “ΔH (text)” value was -14.1 kcal/mol, the “−TΔS” value came out at 2.9 kcal/mol and the “−TΔS (text)” value amounted to 2.9 kcal/mol. The compound also registered a ΔG at C3 (ITC, ΔG=ΔH−TΔS) of -11.2 kcal/mol. At C3 (relative to peptide 14), the “rKD ITC” value came to 2.4, the ΔΔG is -0.5 kcal/mol, the ΔΔH is 3.5 kcal/mol and the “−TΔΔS” value was -4.1 kcal/mol.

As usually defined, the half-life is the time needed for the level to fall by half in the phase considered. The low end stands for fast loss, the high end for slow loss. A word on the IC50: it is the point on the concentration scale where inhibition reaches its midpoint.
